We go through 1 compound from patent US9220814B2, “Broad-spectrum antimicrobial compositions based on combinations of taurolidine and protamine and medical devices containing such compositions” (Ethicon, Inc., priority 2011, dated 2015).

Data set [1] concerns Staphylococcus aureus ACTT 6538. Briefly: in vitro MBC (minimum bactericidal concentration) study of PS:TU ratios in SST medium. The data set is classed as cell-based. On the procedure:
The range of the ratios of the components of the synergistic antimicrobial compositions of the present invention was obtained by an in vitro MBC (minimum bactericidal concentration) study. The study was conducted in SST medium inoculated with about 10^6 CFU/ml Staphylococcus aureus ACTT 6538. In vitro efficacy was evaluated for different ratios of PS and TU combinations along with the stand alone (i.e., individual) compositions at the same concentrations as in the combination composition. After incubation at 37° C. for 24 hours, viable bacteria populations were measured by plate count. Log reduction (LR) was used as the end point for efficacy and was defined as Log CFU/ml of untreated control−Log CFU/ml of treated. The synergistic index (SI) was defined as the LR of a given combination−sum of LR of single component at the same concentration as in the combination. An SI=0 indicated additive effect, SI=1, indicated 90% more bacterial cedality, SI=2 indicated 99% more bacterial cedality, SI=3, indicated 99.9% more bacterial cedality, etc., by a combination than its stand alone components at the same usage, thus synergy.

For another data set, the system named is S. aureus ACTT 6538. As to the kind of experiment: bactericidal two-dimensional concentration matrix of TU and PS in SST medium, plate count. The data set is classed as cell-based, Staphylococcus aureus. The settings on record: TU alone at 100 ppm, 37° C. 24 hours. On the procedure: Concentration gradients of TU and PS were diluted in an SST medium and made into a two-dimensional matrix. Bacteria of interest were inoculated to the matrix at about 10e6 CFU/ml. S. aureus ACTT 6538 or E. coli ATCC 25922 were used for this Example 2. After incubation at 37° C. for 24 hours, viable bacteria populations were measured by plate count. Log reduction (LR) was used as the end point for efficacy and was defined as: Log CFU/ml of untreated control−Log CFU/ml of treated. Synergistic index (SI) was defined as LR of a given combination−sum of LR of single component at the same concentration as in the combination. SI=0 indicated additive effect, SI=1, indicated 90% more bacterial cedality, SI=2 indicated 99% more bacterial cedality, SI=3, indicated 99.9% more bacterial cedality, etc., by combination than its stand alone compositions at the same usage, thus synergy.

Data set [2] concerns Staphylococcus aureus ACTT 6538. Briefly: in vitro bacteria attachment assay on coated mesh discs in SST medium. The data set is classed as cell-based. The note with it: for Log reduction: 4 hours SST 37° C. On the procedure:
Taurolidine was dissolved at 4% wt./vol. in a 70% acetone 30% water vol./vol. mixture. Protamine sulfate was dissolved at 10% wt./vol. in water under warming. 50 μl of the taurolidine (TU) solution and 20 μl of the protamine (PS) solution were applied to each mesh disk using a pipette and allowed to dry at 50° C. until the majority of the liquid was gone and then stored under vacuum. First the taurolidine solution was applied, and then immediately thereafter the protamine sulfate solution was applied. The in vitro bacteria attachment assay was developed for its utility of indicating biofilm prevention potential of prototype mesh. Since bacterial attachment to a surface is the first step of biofilm formation, a surface treatment that inhibits bacterial attachment would reduce the chance of subsequent biofilm formation. The assay was conducted in SST (Serum Saline TSB) medium to mimic in vivo and clinical conditions. The formulation of SST is Tryptic Soy Broth (TSB):serum:saline in the ratio of 1:2:7. Each test article was incubated in SST inoculated with Staphylococcus aureus ACTT 6538 or Escherichia coli ATCC 25922 at about 6 Log CFU/ml. After incubation with rotation of 60 rpm for 4 hours at 37° C., the mesh discs were washed in saline 3 times to remove unattached bacteria. Bacteria attached to the mesh were collected by sonication in saline with neutralizing agent. Viable bacteria populations were measured by plate count on TSA (Tryptic Soy agar) medium contain neutralizing agents. The use of neutralizing agents in bacteria suspension and plate count medium was to eliminate any carry over antimicrobial effect from the coating. The plates were incubated at 37° C. for 24 hours. The number of attached viable bacteria was reported as CFU/disc. In accordance with Example 1, surgical mesh discs coated with different stand alone and combinations of taurolidine+protamine sulfate were prepared. Protocols of mesh coating and in vitro attachment assay as in Example 1 were used for this Example 3.

Data set [3] relates to Escherichia coli ATCC 25922. Described as above. The data set is classed as cell-based. The settings on record: treated mesh surface, serum containing media. On the procedure:
Taurolidine was dissolved at 4% wt./vol. in a 70% acetone 30% water vol./vol. mixture. Protamine sulfate was dissolved at 10% wt./vol. in water under warming. 50 μl of the taurolidine (TU) solution and 20 μl of the protamine (PS) solution were applied to each mesh disk using a pipette and allowed to dry at 50° C. until the majority of the liquid was gone and then stored under vacuum. First the taurolidine solution was applied, and then immediately thereafter the protamine sulfate solution was applied. The in vitro bacteria attachment assay was developed for its utility of indicating biofilm prevention potential of prototype mesh. Since bacterial attachment to a surface is the first step of biofilm formation, a surface treatment that inhibits bacterial attachment would reduce the chance of subsequent biofilm formation. The assay was conducted in SST (Serum Saline TSB) medium to mimic in vivo and clinical conditions. The formulation of SST is Tryptic Soy Broth (TSB):serum:saline in the ratio of 1:2:7. Each test article was incubated in SST inoculated with Staphylococcus aureus ACTT 6538 or Escherichia coli ATCC 25922 at about 6 Log CFU/ml. […] Viable bacteria populations were measured by plate count on TSA (Tryptic Soy agar) medium contain neutralizing agents. […]

For data set [4] the following is noted: cited from earlier work.

Molecules are shown by their SMILES.

With `O=S1(=O)CCN(CN2CCS(=O)(=O)NC2)CN1` [TU, bis(1,1-dioxoperhydro-1,2,4-thiadiazinyl-4)-methane], the LR-TU in data set [1] (TU alone at same concentration as in PS:TU 1:1), in data set [1] (TU alone at same concentration as in PS:TU 1:10), in data set [1] (TU alone at same concentration as in PS:TU 1:50), in data set [1] (TU alone at same concentration as in PS:TU 1:100), in data set [1] (TU alone at same concentration as in PS:TU 1:200) and in data set [1] (TU alone at same concentration as in PS:TU 10:1) was 0 throughout. In data set [1] (TU alone at same concentration as in PS:TU 50:1), the LR-TU was found to be 0. For the same compound, the “Log reduction (LR)” value in the data set on S. aureus ACTT 6538 was found to be 0. In addition, the values for the Log reduction in data set [2] (TU 500 μg/disc alone), in data set [2] (TU 1000 μg/disc alone) and in data set [2] (TU 2000 μg/disc alone) were 1, 0.8 and 2, respectively. The “inhibition of attachment by S. aureus (in words)” value in data set [2] (treated mesh surface, serum containing media) is reported as “less inhibition than the combination”. For the same compound, in data set [3], the “inhibition of attachment by E. coli (in words)” value is on record as “less inhibition than the combination”. Besides, the “safe and well tolerated cumulative dose” value in data set [4] (cumulative doses) is reported as “exceeding 300 g”. In data set [4] (systemic doses), the “safe and well tolerated systemic dose” value is reported as “exceeding 40 g/day”.
